Reference: PubChem BioAssay (NCI)
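In this assay, cells in 96-well plates receive the compound at five concentrations for 48 hours. Endpoints are linearly interpolated between the surrounding concentrations. Definition used: TGI = concentration required for complete inhibition of growth.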

Legend:
Experiment in all cases: NCI anticancer screen, dose series, 48 h
[1] = system: DMS 273 small cell lung
[2] = system: HOP-18 NSCLC
[3] = system: KM20L2 colon
[4] = system: DMS 114 small cell lung
[5] = system: M19-MEL melanoma
[6] = system: DLD-1 colon
[7] = system: XF 498 CNS
[8] = system: SNB-78 CNS
[9] = system: LXFL 529 NSCLC
[10] = system: RXF-631 renal

Compound	TGI [1]	TGI [2]	TGI [3]	TGI [4]	TGI [5]	TGI [6]	TGI [7]	TGI [8]	TGI [9]	TGI [10]
CC#CC#C/C=C1\C=CC2(OC=CC2O)O1 (stereo unspecified)	> 23.3 µM	14.9 µM	10.4 µM	> 22.5 µM	> 23.3 µM	> 23.3 µM	> 23.3 µM	> 7.37 µM	> 23.3 µM	
COC(=O)C1=CCC2c3[nH]c4ccccc4c3CCN2C1 (stereo unspecified)	> 354 µM		> 354 µM	> 354 µM	> 354 µM	> 354 µM			> 354 µM	
Cn1c(=O)n(C2(C)CSC2)c2ccccc21	> 100 µM		> 100 µM	> 100 µM	> 100 µM	> 100 µM	> 100 µM		> 100 µM	
CC(N)C(C)c1ccccc1 (stereo unspecified)	> 100 µM	> 100 µM	> 100 µM	> 100 µM		> 100 µM	> 100 µM	> 100 µM	> 100 µM	
CSC1=Nc2ccccc2N=C(c2ccccc2)C1	> 100 µM	> 100 µM	> 100 µM	65.5 µM	> 100 µM	> 100 µM	> 100 µM	> 100 µM	> 100 µM	> 100 µM
COc1cccc(/C=N/[N-]C(N)=O)c1[O-].[Co+2].[OH3+].c1ccncc1			> 100 µM							
COC(=O)C(C(=O)C(=O)Nc1ccccc1C)c1nc2ccc([N+](=O)[O-])cc2[nH]c1=O (stereo unspecified)	> 100 µM	> 100 µM	> 100 µM	> 100 µM	> 100 µM	> 100 µM	> 100 µM	> 100 µM	> 100 µM	
CCCC(C(=O)OC)C1N=C(NC#N)N(Cc2ccccc2)C1=O (stereo unspecified)	> 100 µM		> 100 µM	> 100 µM	> 100 µM	> 100 µM	> 100 µM		> 100 µM	
CC1CCc2c(sc3ncnc(N/N=C/c4ccc(Cl)cc4)c23)C1 (stereo unspecified)	> 100 µM		62.7 µM			> 100 µM				
CCN(CC)C(=O)CC12CCCCC1=Nc1ccccc12 (stereo unspecified)	> 100 µM	> 100 µM	> 100 µM		> 100 µM	> 100 µM	> 100 µM	> 100 µM	> 100 µM	> 100 µM
C=C1CN2CCc3c([nH]c4ccccc34)C2CC1CC(=O)N(C)C (stereo unspecified)	> 309 µM	> 309 µM	> 309 µM	> 309 µM	> 309 µM	> 309 µM	> 309 µM		> 309 µM	
N#C/C(=C\c1ccc[nH]1)C(=O)c1ccccc1	> 100 µM	> 100 µM	> 100 µM	> 100 µM	> 100 µM	> 100 µM		> 100 µM	> 100 µM	> 100 µM
